Results reported in patent US8093209B2, “Methods of suppressing microglial activation and systemic inflammatory responses” (Cognosci, Incorporated, priority 2002, dated 2012).

Tests used:
[1] = system: mice with midline closed head injury; experiment: Murine closed head injury model (rotorod, weight, Morris Water Maze, survival); format: in vivo, mouse
Text: The mice received a midline closed head injury delivered by a pneumatic impactor at a speed of 6.8 m/s.

[2] = system: primary rat neuronal/glial cultures exposed to NMDA; experiment: NMDA-induced 45Ca uptake by primary neuronal-glial cultures; format: cell-based; settings: 6 μM peptide
Protocol: (§1) Primary neuronal-glial cultures were prepared from fetal Sprague-Dawley rat brains at 18 days of gestation as previously described (Pearlstein et al., 1998). Brains were harvested from 10-15 pups and dissected to separate cortex from meninges and subcortical structures using anatomical landmarks. Cortices were pooled and minced into 2 mm^3 pieces in a buffered salt solution supplemented with 20 mM HEPES buffer, pH 7.4, containing 0.25% trypsin. The tissue was incubated for 20 minutes at 37° C. in a 5% CO2/95% room air atmosphere, and washed twice with ice-cold, glutamine-free minimum essential medium (MEM; Life Technologies) containing 15 mM glucose, 5% fetal bovine serum (GIBCO), 5% horse serum (GIBCO), and 1% DNase-I (Sigma Chemical Co., St. Louis, Mo., USA). Tissue pieces were dissociated by trituration through a fire-polished 9-inch Pasteur pipette (I.D.=0.7 mm). The resultant suspension was centrifuged at 50×g for 10 min, the supernatant discarded, and the pellet resuspended in growth medium (MEM supplemented with 15 mM glucose, 5% fetal bovine serum, and 5% horse serum). The dissociated cells were plated to achieve a confluent monolayer using 4×10^5 cells per well in poly-D-lysine coated, 24-well culture plates (Falcon 3047; Becton Dickinson Co., Lincoln Park, N.J., USA). Cultures were maintained undisturbed at 37° C. in a humidified 5% CO2/95% room air atmosphere for 13-16 days prior to use.
Cellular calcium uptake from the extracellular space was assessed using ^45CaCl2 (American Radiolabeled Chemicals, St. Louis, Mo.). After washing the cultures with Mg^2+-free BSS containing 20 mM HEPES buffer, 6 μM peptide or 10 μM MK-801 was added to each well prior to and removed at the end of 100 μM NMDA exposure. ^45Ca (0.28 μCi/ml, 0.9 μCi/well) was added to each well immediately prior to NMDA exposure. The cultures were returned to the incubator and maintained at 37° C. Twenty minutes later, the exposure medium was removed and each well was washed 3 times with ice-cold Mg^2+-free BSS containing 20 mM HEPES buffer. The cells were subsequently lysed by addition of 0.2% sodium dodecyl sulfate (SDS). An aliquot from each well was added to a liquid scintillation vial containing 10 ml Cytoscint™ (ICN, Biochemical Research Product, CA) and radioactivity was determined by scintillation counting and normalized to cell count.

[3] = system: LPS-induced serum TNFα and IL-6 in C57-BL6 mice; experiment: Intravenous LPS sepsis model, serum TNFα and IL-6 by ELISA; format: in vivo, mouse; settings: peptide 6.6 mg/kg, LPS 375 μg/kg i.v.
Protocol: In these methods, 14-16 week old male C57-BL6 mice were injected with LPS (11.25 μg in 150 μl sterile isotonic saline, or 375 μg/kg) via the tail vein, and then immediately with vehicle (isotonic sterile saline) or ApoE (133-149) (at a dose of 200 μg, in 100 μl, or 6.6 mg/kg, prepared in isotonic saline). Serum samples were obtained in both LPS+vehicle and LPS+peptide groups (n=10 animals/group) at the following timepoints: time 0 (prior to injection), 1 hour, 3 hour and 24 hours after injection. Blood was collected by transcardial puncture, and allowed to clot for 30 minutes. Serum samples, obtained after centrifugation at 16,000 g for 5 minutes, were screened by solid phase ELISA for TNFα and IL-6. There were 20 animals per time point.

[4] = system: primary rat neuronal/glial cultures exposed to NMDA; experiment: NMDA-induced LDH release in primary neuronal-glial cultures; format: cell-based
Protocol: as §1
Mature cultures (13-16 days in vitro) were washed with Mg^2+-free buffered salt solution (BSS) containing 20 mM HEPES buffer (pH7.4) and 1.8 mM CaCl2, prior to the addition of NMDA. Following NMDA exposure, cultures were maintained for 30 minutes at 37° C. in a 5% CO2/95% air atmosphere. The medium containing NMDA was then removed and replaced with MEM supplemented with 20 mM glucose. The cultures were returned to the incubator for 24 h. In all experiments, cellular damage was assessed at 24 h after exposure to NMDA by measurement of the activity of lactate dehydrogenase (LDH) released into the medium as described below. The non-competitive NMDA receptor antagonist, MK-801 (Tocris Cookson Ins., St. Louis, Mo.) at a concentration of 10 μM was used as a positive control. Preliminary dose-response studies were performed to determine the concentration of NMDA (100 μM) required to effect a near-maximal LDH release (ED90) as used in the present study.
The effect of human recombinant apoE (Panverra, Madison, Wis.) on 100 μM NMDA-induced LDH release was assessed and the dose-response curve was obtained (apoE: 0.1-10 μM final concentration). ApoE3, the most common human isoform, was added to the cultures 30 minutes prior to and removed following NMDA exposure. The effect of apoE peptide (133-149) on NMDA (100 μM or 300 μM)-induced LDH release was next assessed and the dose-response curve was obtained in a separate set of sister cultures that were simultaneously treated under one of the following conditions: (1) various doses of peptide (0.3 μM, 1 μM, 3 μM, 6 μM, 10 μM final concentration) were added to the culture immediately prior to and removed at the end of NMDA exposure; (2) no peptide, NMDA exposure; (3) no peptide, no NMDA exposure; (4) no peptide, NMDA exposure with 10 μM MK-801 for 30 minutes. The effect of a scrambled control peptide on NMDA-induced LDH release was similarly assessed.
The effect of time of administration of apoE peptide (133-149) on NMDA-induced LDH release was assessed in a separate set of sister cultures that were simultaneously treated under one of following conditions: (1) peptide was added to the culture medium 24 h prior to and removed immediately before exposure to NMDA; (2) peptide was added immediately prior to and removed at the end of the NMDA exposure; (3) peptide was added immediately following the 30 minutes NMDA exposure; (4) no peptide, NMDA exposure; (5) no peptide, no NMDA exposure. […]

[5] = system: thioglycollate-elicited peritoneal macrophages; experiment: [Ca2+]i in Fura-2/AM treated single macrophages, digital imaging microscopy (Example 10); format: cell-based, mouse; settings: 1000-fold molar excess RAP, 10 mM NiCl2, or 1 μg/ml pertussis toxin 12 h
Protocol: Macrophage Harvesting. All experiments involving animals were first approved by the Duke Institutional Animal Care and Use Committee. Pathogen-free female C57BL/6 mice and ApoE deficient mice previously backcrossed 10 times to the C57BL/6 strain were obtained from the Jackson Laboratory (Bar Harbor, Me.). Thioglycollate-elicited peritoneal macrophages were harvested by peritoneal lavage using 10 ml of ice-cold Hanks' balanced salt solution containing 10 mM HEPES and 3.5 mM NaHCO3 (HHBSS), pH 7.4. The macrophages were pelleted by centrifugation at 4° C. at ˜800×g for 10 min and resuspended in RPMI 1640 media supplemented with 25 mM HEPES, 12.5 U/ml penicillin, 6.5 mg/ml streptomycin, and 5% fetal bovine serum.
Measurement of [Ca^2+]i in apoE and peptide treated macrophage. Changes in [Ca^2+]i levels in Fura-2/AM treated single cells were quantified using digital imaging microscopy in accordance with known techniques. Macrophages were plated on glass coverslips sitting in 35 mm Petri dishes at a density of 1.5×10^5 cells/cm^2, and allowed to adhere for 2 h in a humidified 5% CO2 incubator at 37° C. The non-adherent cells were aspirated and the monolayers were washed twice with HHBSS. 4 μM Fura-2/AM was incubated with the cells for thirty min in the dark at room temperature and [Ca^2+]i was subsequently measured using a digital imaging microscope in accordance with known techniques. […] To determine if signaling resulted from ligation of the ligand to LRP, cells were preincubated with a 1000-fold molar excess of RAP or 10 mM NiCl2, both of which inhibit ligand binding to LRP, for 5 min prior to stimulation with apoE or peptide. In experiments in which the involvement of a G protein was assessed, monolayers were incubated with 1 μg/ml pertussis toxin for 12 h at 37° C. and Ca^2+ measurements were made as stated above.

peritoneal macrophage = experiment: Intracellular calcium in Fura-2/AM loaded peritoneal macrophage (Example 4); format: cell-based, mouse; settings: preincubation with 100 molar excess of RAP
Protocol: Thioglycolate-elicited peritoneal macrophage were harvested from 8-week old C57-BL6 mice, and plated at a density of 4×10^3 cells on glass coverslips, loaded with 2.5 μM Fura-2/AM for thirty minutes, and washed with Hanks buffered solution containing […] calcium. After exposure to 5 nM human recombinant apoE3 or E4, intracellular calcium was measured by Zeiss digital microscopy.

| Molecule | learning to find hidden platform, Morris Water Maze ([1]; 21 days after injury, p<0.05) | weight loss after closed head injury ([1]; high dose 406 ug/kg i.v.) | rotorod latency (motor deficit) after closed head injury ([1]; high dose 406 ug/kg i.v. 30 min after injury) | acute survival, Kaplan-Meier analysis ([1]; mouse, in vivo) | duration of protective effect of single dose ([1]; p<0.05) | NMDA-induced calcium influx compared to NMDA alone ([2]; 100 μM NMDA) | calcium influx in absence of NMDA ([2]; no NMDA) | serum IL-6 versus LPS+vehicle ([3]; 1 and 3 hours post-injection) | serum TNFα versus LPS+vehicle ([3]; 1 hour post-injection) | protection against NMDA (LDH release), timing ([4]; 6 μM peptide 24 hours prior to NMDA exposure) | protection against NMDA (LDH release), timing ([4]; 6 μM peptide added following NMDA exposure) | protection against NMDA (LDH release), timing ([4]; 6 μM peptide concurrent with 100 μM NMDA) | protection against NMDA-induced cell damage, truncated peptides ([4]; 6 μM peptide, 100 μM NMDA) | peptide concentration at which protection was first observed ([4]; 100 μM NMDA) [μm] | peptide concentration of maximal protection ([4]; 100 μM NMDA) [µM] | protection against NMDA toxicity (LDH release) ([4]; 300 μM NMDA) | protection against NMDA toxicity (LDH release), dose response ([4]; peptide 0.3-10 μM, 100 μM NMDA) | effect of preincubation on apoE-induced [Ca2+]i increase [5] | block of ApoE-induced intracellular calcium mobilization (peritoneal macrophage) |
| --- | --- | --- | --- | --- | --- | --- | --- | --- | --- | --- | --- | --- | --- | --- | --- | --- | --- | --- | --- |
| LRVRLAS HLRKLRKRLL (LRVRLASHLRKLRKRLL; fragment of receptor-binding domain of human ApoE; listed as Homo sapiens) [ApoE (133-149), 17-mer, ApoE positions 133-149] | appeared to provide protection in learning deficits | protected animals from this motor deficit (FIG. 10A), and concomitant weight loss | protected animals from this motor deficit | significant improvement in acute survival | sustained for five days following injury | significantly decreased calcium influx | no direct effect on calcium influx | significantly reduced | significantly reduced | modest but significant protection | no protection | robust protection | completely blocked 100 μM NMDA-induced cell death | 3 | 6 | failed to protect cells at any peptide concentration | robust, dose-dependent protection |  |  |
| RAP: 39 kD protein that blocks the binding of all known ligands to LRP (protein, UniProt P30533 35-357, looked up) Alpha-2-macroglobulin …: YSREKNQPKPSPKRESGEEFRMEKLNQLWEKAQRLHLPPVRLAELHADLKIQERDELAWKKLKLDGLDEDGEKEARLIRNLNVILAKYGLDGKKDARQVTSNSLSGTQEDGLDDPRLEKLWHKAKTSGKFSGEELDKLWREFLHHKEKVHEYNVLLETLSRTEEIHENVISPSDLSDIKGSVLHSRHTELKEKLRSINQGLDRLRRVSHQGYSTEAEFEEPRVIDLWDLAQSANLTDKELEAFREELKHFEAKIEKHNHYQKQLEIAHEKLRHAESVGDGERVSRSREKHALLEGRTKELGYTVKKHLQDLSGRISRARHNEL |  |  |  |  |  |  |  |  |  |  |  |  |  |  |  |  |  | markedly attenuated the [Ca^2+]i increases | did not block this effect |
